# Experimental data reported in patent US10278394B2, “Compounds derived from herbicidal carboxylic acids and tetraalkylammonium or (arylalkyl)trialkylammonium hydroxides” (Dow AgroSciences LLC, priority 2007, dated 2019).
# System: grapes (Vitis labrusca L.)
# Experiment: Volatility evaluation: injury to grapes from vapor exposure to treated wheat
# Type: in vivo
# Conditions: wheat sprayed at 11200 g ae/ha; 24 hour vapor exposure at 40° C.; evaluated 7 days after exposure
# Source text: Method for evaluating the volatility of herbicide standards and the compounds derived from combining a carboxylic acid herbicide with either a tetraalkylammonium or an (arylalkyl)trialkylammonium hydroxide.
# Four pots of wheat (Triticum aestivum L.) grown in 4 inch square pots were sprayed at 11200 g ae/ha with each of the different forms of 2,4-D. Treatments were applied with a tracksprayer manufactured by Allen Machine Works. The sprayer utilized an 8002E spray nozzle, spray pressure of 262 kPa pressure and speed of 1.5 mph (2.4 km/h) to deliver 187 L/Ha. The nozzle height was 46 cm above the plant canopy. The growth stage of the wheat was 1 to 2 leaf. The wheat plants were allowed to thoroughly dry to ensure that none of the spray solution was present when they were moved into a clean pot flat. A known sensitive species, grapes (Vitis labrusca L.) were placed at the opposite end of the flat. All of the pots were covered with a humidome with small ½ inch (1.27 cm) diameter holes cut into the end where the wheat was placed and a small box fan powered with a battery in the other end to pull air across the treated wheat plants and over the top of grapes. […] A 24 hour exposure period was used after which the sensitive plants were then removed and placed in the greenhouse and evaluated for injury from vapor exposure to the treatments.
structure (smiles),measurement,value
CNC.COc1c(Cl)ccc(Cl)c1C(=O)O [Dicamba DMA],% Injury to grapes from vapor exposure,70%
